Test results reported in PubChem BioAssay (NCI).
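These data come from cells grown in 96-well plates and exposed to compound for 48 hours at five concentrations. GI50 = concentration required for 50% inhibition of growth. TGI denotes the concentration required for complete inhibition of growth.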

Columns and labels:
Assay in all cases: NCI tumour cell line growth inhibition, 48 h
TK-10 renal = tested on: TK-10 renal
SF-268 CNS = tested on: SF-268 CNS
IGROV1 ovarian = tested on: IGROV1 ovarian
DU-145 prostate = tested on: DU-145 prostate
NCI-H460 lung = tested on: NCI-H460 lung
UACC-257 melanoma = tested on: UACC-257 melanoma
CAKI-1 renal = tested on: CAKI-1 renal
KM12 colon = tested on: KM12 colon
NCI/ADR-RES ovarian = tested on: NCI/ADR-RES ovarian
U251 CNS = tested on: U251 CNS
COLO 205 colon = tested on: COLO 205 colon
OVCAR-5 ovarian = tested on: OVCAR-5 ovarian
HOP-92 NSCLC = tested on: HOP-92 NSCLC
786-0 renal = tested on: 786-0 renal
A549 NSCLC = tested on: A549 NSCLC
K-562 leukemia = tested on: K-562 leukemia
CCRF-CEM leukemia = tested on: CCRF-CEM leukemia
OVCAR-4 ovarian = tested on: OVCAR-4 ovarian
MOLT-4 leukemia = tested on: MOLT-4 leukemia
OVCAR-8 ovarian = tested on: OVCAR-8 ovarian
SF-539 CNS = tested on: SF-539 CNS
HL-60(TB) leukemia = tested on: HL-60(TB) leukemia
PC-3 prostate = tested on: PC-3 prostate
MDA-MB-435 = tested on: MDA-MB-435
HT29 colon = tested on: HT29 colon
HCT-116 colon = tested on: HCT-116 colon
SNB-75 CNS = tested on: SNB-75 CNS
MCF7 breast = tested on: MCF7 breast
ACHN renal = tested on: ACHN renal
UO-31 renal = tested on: UO-31 renal
SW-620 colon = tested on: SW-620 colon
NCI-H23 lung = tested on: NCI-H23 lung
BT-549 breast = tested on: BT-549 breast
RPMI-8226 leukemia = tested on: RPMI-8226 leukemia
HS 578T breast = tested on: HS 578T breast
RXF 393 renal = tested on: RXF 393 renal
UACC-62 melanoma = tested on: UACC-62 melanoma
HCC-2998 colon = tested on: HCC-2998 colon
SK-MEL-5 melanoma = tested on: SK-MEL-5 melanoma
LOX IMVI melanoma = tested on: LOX IMVI melanoma
SK-MEL-2 melanoma = tested on: SK-MEL-2 melanoma
SK-MEL-28 melanoma = tested on: SK-MEL-28 melanoma
MDA-MB-231 breast = tested on: MDA-MB-231 breast
SF-295 CNS = tested on: SF-295 CNS
NCI-H226 lung = tested on: NCI-H226 lung
MALME-3M melanoma = tested on: MALME-3M melanoma
NCI-H522 lung = tested on: NCI-H522 lung
SR leukemia = tested on: SR leukemia
SK-OV-3 ovarian = tested on: SK-OV-3 ovarian
A498 renal = tested on: A498 renal
HOP-62 NSCLC = tested on: HOP-62 NSCLC
SNB-19 CNS = tested on: SNB-19 CNS
T-47D breast = tested on: T-47D breast
OVCAR-3 ovarian = tested on: OVCAR-3 ovarian
HCT-15 colon = tested on: HCT-15 colon
M14 melanoma = tested on: M14 melanoma
SN12C renal = tested on: SN12C renal

SMILES: COc1ccc(C2=CC(c3ccc(OC)cc3Br)N3C=CSC3=N2)cc1 (centres undefined)
- GI50 (TK-10 renal): 13.9 µM
- TGI (TK-10 renal): 33.3 µM
- GI50 (SF-268 CNS): 13.7 µM
- TGI (SF-268 CNS): 48.5 µM
- GI50 (IGROV1 ovarian): 7.31 µM
- TGI (IGROV1 ovarian): 30.7 µM
- GI50 (DU-145 prostate): 11.9 µM
- TGI (DU-145 prostate): 33.1 µM
- GI50 (NCI-H460 lung): 11.9 µM
- TGI (NCI-H460 lung): 34.6 µM
- GI50 (UACC-257 melanoma): 10.8 µM
- TGI (UACC-257 melanoma): 31.3 µM
- GI50 (CAKI-1 renal): 13.4 µM
- TGI (CAKI-1 renal): 51.4 µM
- GI50 (KM12 colon): 2.28 µM
- TGI (KM12 colon): 5.06 µM
- GI50 (NCI/ADR-RES ovarian): 4.43 µM
- TGI (NCI/ADR-RES ovarian): 29 µM
- GI50 (U251 CNS): 3.23 µM
- TGI (U251 CNS): 14 µM
- GI50 (COLO 205 colon): 11.3 µM
- TGI (COLO 205 colon): 25.1 µM
- GI50 (OVCAR-5 ovarian): 12.4 µM
- TGI (OVCAR-5 ovarian): 32.3 µM
- GI50 (HOP-92 NSCLC): 5.78 µM
- TGI (HOP-92 NSCLC): 41.8 µM
- GI50 (786-0 renal): 13.1 µM
- TGI (786-0 renal): 28.7 µM
- GI50 (A549 NSCLC): 10.5 µM
- TGI (A549 NSCLC): 39 µM
- GI50 (K-562 leukemia): 2.47 µM
- TGI (K-562 leukemia): 8.26 µM
- GI50 (CCRF-CEM leukemia): 2.69 µM
- TGI (CCRF-CEM leukemia): > 100 µM
- GI50 (OVCAR-4 ovarian): 5.04 µM
- TGI (OVCAR-4 ovarian): 27.3 µM
- GI50 (MOLT-4 leukemia): 2.93 µM
- TGI (MOLT-4 leukemia): 9.64 µM
- GI50 (OVCAR-8 ovarian): 4.09 µM
- TGI (OVCAR-8 ovarian): 27.8 µM
- GI50 (SF-539 CNS): 4.61 µM
- TGI (SF-539 CNS): 17.1 µM
- GI50 (HL-60(TB) leukemia): 3.2 µM
- TGI (HL-60(TB) leukemia): 19.3 µM
- GI50 (PC-3 prostate): 6.4 µM
- TGI (PC-3 prostate): 31.9 µM
- GI50 (MDA-MB-435): 2.58 µM
- TGI (MDA-MB-435): 7.95 µM
- GI50 (HT29 colon): 2.09 µM
- TGI (HT29 colon): 4.87 µM
- GI50 (HCT-116 colon): 1.66 µM
- TGI (HCT-116 colon): 3.17 µM
- GI50 (SNB-75 CNS): 15.6 µM
- TGI (SNB-75 CNS): 43.7 µM
- GI50 (MCF7 breast): 1.51 µM
- TGI (MCF7 breast): 11.2 µM
- GI50 (ACHN renal): 2.39 µM
- TGI (ACHN renal): 5.88 µM
- GI50 (UO-31 renal): 7.31 µM
- TGI (UO-31 renal): 21.2 µM
- GI50 (SW-620 colon): 2 µM
- TGI (SW-620 colon): 4.79 µM
- GI50 (NCI-H23 lung): 15.2 µM
- TGI (NCI-H23 lung): 42.8 µM
- GI50 (BT-549 breast): 3.19 µM
- TGI (BT-549 breast): 12.1 µM
- GI50 (RPMI-8226 leukemia): 1.86 µM
- TGI (RPMI-8226 leukemia): 7.29 µM
- GI50 (HS 578T breast): 14.4 µM
- TGI (HS 578T breast): 66.5 µM
- GI50 (RXF 393 renal): 7.67 µM
- TGI (RXF 393 renal): 22 µM
- GI50 (UACC-62 melanoma): 2.79 µM
- TGI (UACC-62 melanoma): 10.7 µM
- GI50 (HCC-2998 colon): 5.38 µM
- TGI (HCC-2998 colon): 17.8 µM
- GI50 (SK-MEL-5 melanoma): 4.32 µM
- TGI (SK-MEL-5 melanoma): 16.6 µM
- GI50 (LOX IMVI melanoma): 2 µM
- TGI (LOX IMVI melanoma): 4.03 µM
- GI50 (SK-MEL-2 melanoma): 15.2 µM
- TGI (SK-MEL-2 melanoma): 31.3 µM
- GI50 (SK-MEL-28 melanoma): 8.83 µM
- TGI (SK-MEL-28 melanoma): 22.3 µM
- GI50 (MDA-MB-231 breast): 8.32 µM
- TGI (MDA-MB-231 breast): 36.2 µM
- GI50 (SF-295 CNS): 11.5 µM
- TGI (SF-295 CNS): 38.7 µM
- GI50 (NCI-H226 lung): 14.7 µM
- TGI (NCI-H226 lung): 37.8 µM
- GI50 (MALME-3M melanoma): 14 µM
- TGI (MALME-3M melanoma): 32.3 µM
- GI50 (NCI-H522 lung): 5.22 µM
- TGI (NCI-H522 lung): 20.7 µM
- GI50 (SR leukemia): 1.73 µM
- TGI (SR leukemia): 7.1 µM
- GI50 (SK-OV-3 ovarian): 6.78 µM
- TGI (SK-OV-3 ovarian): 27 µM
- GI50 (A498 renal): 13.3 µM
- TGI (A498 renal): 32.5 µM
- GI50 (HOP-62 NSCLC): 10.5 µM
- TGI (HOP-62 NSCLC): 24.8 µM
- GI50 (SNB-19 CNS): 9.79 µM
- TGI (SNB-19 CNS): 25.3 µM
- GI50 (T-47D breast): 9.21 µM
- TGI (T-47D breast): 40.4 µM
- GI50 (OVCAR-3 ovarian): 4.11 µM
- TGI (OVCAR-3 ovarian): 14.8 µM
- GI50 (HCT-15 colon): 1.49 µM
- TGI (HCT-15 colon): 3.41 µM
- GI50 (M14 melanoma): 5.21 µM
- TGI (M14 melanoma): 20.8 µM
- GI50 (SN12C renal): 10 µM
- TGI (SN12C renal): 25.5 µM
